Assays:
[1] = molecular target: p300 (Homo sapiens (Human), UniProt Q09472); test: Assay of p300 protein activity (HTRF, p300-GST with Histone H4 (1-21) K5/8/12/16Ac-GG-Biotin peptide ligand); format: binding; conditions: 5 nM p300-GST, 50 nM peptide ligand
Experimental: (§1) Assay Example 1: Assay of p300 and CBP Protein Activity
(§2) Reaction buffer: 25 mM HEPES, pH 7.5, 25 mM NaCl, 0.025% CHAPS, 0.025% BSA, 0.5% DMSO.
(§3) Standard Reaction Conditions:
(§4) 5 nM p300-GST, 50 nM peptide ligand.
(§5) Reaction Procedure: • 1. 2.5×BRD was added to the wells of a reaction plate, except for control wells without BRD to which buffer was added instead. • 2. Compounds in 100% DMSO were delivered into the BRD mixture by acoustic technology (Echo550; nanoliter range). The plate was spun down. The mixture was incubated at room temperature for 30 min. • 3. 5×peptide ligand was delivered. The plate was spun down. The mixture was incubated at room temperature for 10 min. • 4. 5×HTRF detection mixture was delivered. The plate was spun down and the mixture was incubated in the dark for 2 h. • 5. A measurement of HTRF was performed with an Envision reader (Ex/Em=320/615, 665 nm). • 6. A HTRF ratio was calculated as follows: [em 665 nm/em 615 nm]*10000.
(§6) The background-subtracted signal (no protein as background) was converted to % bound relative to the DMSO control. Data were analyzed using GraphPad Prism 4 with “sigmoidal dose-response (variable slope)”; and a 4-parameter analysis was performed using Hill slope.
(§7) Constraints: • Bottom=Constant equal to 0 • Top=Must be less than 120

[2] = molecular target: CBP (Homo sapiens (Human), UniProt Q92793); test: Assay of CBP protein activity (HTRF, BRD with acetylated Histone H4 peptide ligand); format: binding
Experimental: as §1, §2, §3, §4, §5, §6, §7

[3] = Pharmacokinetic study in CD-1 mice (intravenous injection and oral gavage); format: in vivo; conditions: male CD-1 mice
Text: Assay Example 2: Pharmacokinetic Study of Compounds of the Present Disclosure
CD-1 mice (male, 5-6 weeks old, Shanghai Family Planning Research Institute)
Injection: To assay pharmacokinetic characteristics of rodents after intravenous injection administration of compounds by a standard protocol. In the assay, candidate compounds were formulated into clear solutions, and administered to mice as a single intravenous injection. The vehicle for the intravenous injection was a mixed vehicle formulated with 5% of dimethyl sulfoxide and 95% of 10% hydroxypropyl β-cyclodextrin. In this assay, two male CD-1 mice were used for intravenous injection administration at a dose of 0.5 mg/kg. Plasma samples were collected at 0.083, 0.25, 0.5, 1, 2, 4, 8 and 24 h after administration. Whole blood samples were collected within 24 hours, and centrifuged at 3000 g for 15 minutes. The supernatants were separated to obtain plasma samples. To the plasma samples was added 20 times volume of acetonitrile solution containing internal standard to precipitate protein. The mixtures were vortexed and centrifuged. The supernatants were taken for injection. Plasma drug concentration was quantitatively analyzed by LC-MS/MS analysis method, and pharmacokinetic parameters (such as clearance (CL), half-life (T1/2), […] (Vdss), area under the drug-time curve (AUC0-last), etc.) were calculated.
Oral: To assay pharmacokinetic characteristics of rodents after oral administration of compounds by a standard protocol. In the assay, candidate compounds were formulated into homogeneous opaque suspensions, and given to the mice for a single oral administration. The vehicle for the oral administration was a mixed vehicle formulated with 5% of dimethyl sulfoxide and 95% of 0.5% methylcellulose. In this assay, two male CD-1 mice were used for oral gavage administration at a dose of 3 mg/kg. Plasma samples were collected at 0.25, 0.5, 1, 2, 4, 8 and 24 h after administration. Whole blood samples were collected within 24 hours, and centrifuged at 3000 g for 15 minutes. The supernatants were separated to obtain plasma samples. To the plasma samples was added 20 times volume of acetonitrile solution containing internal standard to precipitate protein. The mixtures were vortexed and centrifuged. The supernatants were taken for injection. Plasma drug concentration was quantitatively analyzed by LC-MS/MS analysis method, and pharmacokinetic parameters (such as peak concentration (Cmax), half-life (T1/2), area under the drug-time curve (AUC0-last), etc.) were calculated.

Chain of p300 (Q09472 1049-1156): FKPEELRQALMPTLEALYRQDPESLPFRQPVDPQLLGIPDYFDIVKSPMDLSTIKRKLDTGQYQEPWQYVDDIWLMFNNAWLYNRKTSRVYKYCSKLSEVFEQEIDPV
Chain of CBP (Q92793 1085-1192): as the sequence (Q09472 1049-1156) above, with S47N, I73V, Y93F, S98A counted along it

COC1CCC(n2c([C@@H]3C[C@H]4C[C@H]4C(=O)N3c3ccc(F)c(F)c3)nc3cc(-c4c(C)noc4C)ccc32)CC1 (single isomer, unassigned) [Compound 3B]
IC50 [1]: 2.88 nM | IC50 [2]: 0.67 nM | Bioavailability F (%) ([3]; gavage 3 mg/kg vs intravenous 0.5 mg/kg): 64% | Area under curve (0-inf) AUC0-inf ([3]; gavage, 3 mg/kg): 2.606 µM·h | Area under curve (0-t) AUC0-last ([3]; gavage, 3 mg/kg): 2.577 µM·h | Time to peak Tmax ([3]; gavage, 3 mg/kg): 45 min | half-life T1/2 ([3]; gavage, 3 mg/kg): 67.2 min | Cmax ([3]; gavage, 3 mg/kg, read-out: Plasma drug concentration Cmax): 697 nM | Apparent distribution volume Vdss ([3]; intravenous, 0.5 mg/kg): 1.65 L/kg | Area under curve (0-inf) AUC0-inf ([3]; intravenous, 0.5 mg/kg): 0.676 µM·h | Area under curve (0-t) AUC0-last ([3]; intravenous, 0.5 mg/kg): 0.665 µM·h | Clearance Cl ([3]; intravenous, 0.5 mg/kg): 23.3 mL/min/kg | half-life T1/2 ([3]; intravenous, 0.5 mg/kg): 59.4 min

COC1CCC(n2c([C@H]3C[C@@H]4C[C@@H]4C(=O)N3c3ccc(F)c(F)c3)nc3cc(-c4c(C)noc4C)ccc32)CC1 (single isomer, unassigned) [Compound 3C]
IC50 [1]: 14.1 nM

Cc1noc(C)c1-c1ccc2c(c1)nc([C@H]1CCCC(=O)N1c1ccc(F)c(F)c1)n2C1CC2C(C1)C2(F)F (some centres unmarked) [Compound 2B]
IC50 [1]: 3.54 nM | IC50 [2]: 0.67 nM

COC1CCC(n2c([C@@H]3CN(C)C(=O)N3c3ccc(F)c(F)c3)nc3cc(-c4c(C)noc4C)ccc32)CC1 (some centres unmarked) [Compound 4A]
IC50 [1]: 11.3 nM

Reference: patent US20240109879A1, “BENZIMIDAZOLE COMPOUND AND APPLICATION THEREOF” (Medshine Discovery Inc., priority 2020, published 2024)
